In assay [1] the test system is TLR2 induced IL-6 in peripheral blood mononuclear cells (PBMCs). The assay can be described thus: PBMC TLR2 Induced IL-6 Assay. In kind it is cell-based, human. The following applies: IL-6 by ELISA; for EC50: read-out: Cell EC50; for IC50: read-out: Cell IC50. The method, then: PBMC TLR2 Induced IL-6 Assay
Peripheral blood mononuclear cells (PBMCs) were isolated from human blood containing the anti-coagulant EDTA (2.5 mM) by centrifugation over a FICOLL® gradient. PBMCs (250000 cells/well) were cultured in assay media (RPMI with 10% heat inactivated FCS) with compounds for 30 minutes at 37° C. in a 5% CO2 incubator. Following pretreatment with compounds, cells were stimulated for 5 hours with 10 µg/ml lipoteichoic acid (Invivogen, San Diego, Calif.), a TLR2 agonist. At the end of the culture, plates were centrifuged at 1800 rpm for 10 minutes to pellet the cells.
On the technique in general: In an ELISA, binding on a coated surface is turned into a signal by an enzyme label.

Assay [2] addresses IRAK4 (Homo sapiens (Human), UniProt Q9NWZ3). Put plainly: IRAK4 Inhibition Assay. It counts as biochemical. Here is the method: The assays were performed in U-bottom 384-well plates. […] The reaction was initiated by the combination of IRAK4 with substrates and test compounds. The reaction mixture was incubated at room temperature for 60 min. and terminated by adding 45 μL of 35 mM EDTA to each sample. The reaction mixture was analyzed on the Caliper LABCHIP® 3000 (Caliper, Hopkinton, Mass.) by electrophoretic separation of the fluorescent substrate and phosphorylated product.

Setting [3] is: PBMC TLR2 Induced IL-6 Assay, lipoteichoic acid stimulation.
Where [4] appears, read: IRAK4 Inhibition Assay, ATP 500 μM, read-out: IRAK4 IC50.
The mark [5] stands for this setting: Homo sapiens, PBMC, PBMC TLR2 Induced IL-6 Assay, lipoteichoic acid stimulation.
The mark [6] stands for this setting: Homo sapiens, PBMC, human PBMCs, lipoteichoic acid stimulated.
[7] abbreviates: ATP 500 μM, IRAK4 0.6 nM, read-out: IRAK4 IC50.
Where [8] appears, read: human PBMCs, lipoteichoic acid stimulated.

Where a name gives a salt, the structure may show the parent alone. Read-outs that look alike come from different tables or passages of the source.

Chain of IRAK4 (Q9NWZ3 whole entry, species assumed): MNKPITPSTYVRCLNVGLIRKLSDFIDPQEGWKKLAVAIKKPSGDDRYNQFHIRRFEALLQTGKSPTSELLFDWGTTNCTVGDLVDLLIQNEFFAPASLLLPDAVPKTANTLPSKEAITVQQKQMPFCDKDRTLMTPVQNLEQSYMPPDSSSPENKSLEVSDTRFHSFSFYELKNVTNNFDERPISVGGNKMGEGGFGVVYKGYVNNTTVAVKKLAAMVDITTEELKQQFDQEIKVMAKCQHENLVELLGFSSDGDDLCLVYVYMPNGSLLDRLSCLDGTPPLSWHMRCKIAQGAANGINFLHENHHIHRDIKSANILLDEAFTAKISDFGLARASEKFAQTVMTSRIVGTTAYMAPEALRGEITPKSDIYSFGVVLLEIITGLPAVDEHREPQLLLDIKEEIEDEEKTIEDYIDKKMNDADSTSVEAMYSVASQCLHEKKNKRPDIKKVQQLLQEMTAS

On to “6-(5-cyano-1H-pyrrolo[2,3-b]pyridin-1-yl)-N—((S)-2-fluoro-3-hydroxy-3-methylbutyl)-4-((3-fluorotetrahydro-2H-pyran-4-yl)amino) nicotinamide [Example 108]”, for which, in assay [1] (setting [3]), the EC50 (as a rule, the concentration giving half of the maximal effect) is 172 nM. Moreover, in assay [2] (setting [4]), the IC50 (usually the point on the concentration scale where inhibition reaches its midpoint) came to 3.5 nM.
As for `CC(CCF)Nc1cc(-n2ncc3cc(C#N)cnc32)ncc1C(=O)NC[C@@H](F)C(C)(C)O` (mixture of isomers) [Example 205], the EC50 in assay [1] (setting [5]) was 240 nM. Besides, in assay [2] (setting [4]), the IC50 was 7 nM.
`CC(F)Cn1cc(Nc2cc(-n3cnc4cc(C#N)cnc43)ncc2C(=O)NC[C@@H](F)C(C)(C)O)cn1` (mixture of isomers) [Example 378]: the IC50 stood at 655 nM in assay [1] (setting [5]) and 2.6 nM in assay [2] (setting [4]).
In the case of `CC(C)(O)[C@H](F)CNC(=O)c1cnc(-n2ccc3cc(C#N)cnc32)cc1NC1CC1c1c[nH]cn1` (mixture of isomers) [Example 460], in assay [1] (setting [6]), the EC50 stood at 88 nM and the IC50 was 113 nM. In addition, in assay [2] (setting [7]), the IC50 was determined as 3.3 nM.
In the case of `CC1COCCN1CCNc1cc(-n2ccc3cc(C#N)cnc32)ncc1C(=O)NC[C@@H](F)C(C)(C)O` (mixture of isomers) [Example 483], the EC50 in assay [1] (setting [6]) turned out to be 199 nM. In addition, in assay [2] (setting [7]), the IC50 was 10.8 nM.
Regarding `CC(F)(CO)CNc1cc(-n2ncc3cc(C#N)cnc32)ncc1C(=O)NC[C@@H](F)C(C)(C)O` (mixture of isomers) [Example 575], the IC50 in assay [1] (setting [6]) came to 587 nM; in assay [2] (setting [7]) it was 11.8 nM.
With `CC(CCO)Nc1cc(-n2ccc3cc(C#N)cnc32)ncc1C(=O)NC[C@@H](F)C(C)(C)O` (single isomer, unassigned) [Example 21], the EC50 in assay [1] (setting [5]) was 51 nM. For the same compound, the IC50 in assay [2] (setting [4]) is 2.3 nM.
For `CC(CCO)Nc1cc(-n2ccc3cc(C#N)cnc32)ncc1C(=O)NC[C@@H](F)C(C)(C)O` (single isomer, unassigned) [Example 22], the EC50 in assay [1] (setting [3]) came out at 47 nM. For the same compound, the IC50 in assay [2] (setting [4]) is 1.8 nM.
As to `CC(C)(O)[C@H](F)CNC(=O)c1cnc(-n2ccc3cc(C#N)cnc32)cc1NC1CCOCC1F` (single isomer, unassigned) [Example 106], the IC50 was found to be 896 nM in assay [1] (setting [5]) and 1.9 nM in assay [2] (setting [4]). In addition, the EC50 in assay [1] (setting [3]) was determined as 896 nM.
For the compound `CC(C)(O)[C@H](F)CNC(=O)c1cnc(-n2ccc3cc(C#N)cnc32)cc1NC1CCOCC1F` (single isomer, unassigned) [Example 107], the EC50 in assay [1] (setting [3]) is 57 nM. Also, the IC50 in assay [2] (setting [4]) amounted to 1.8 nM.
As for `CC(C)(O)[C@H](F)CNC(=O)c1cnc(-n2ccc3cc(C#N)cnc32)cc1NC1CCC(F)C1` (single isomer, unassigned) [Example 109], the EC50 in assay [1] (setting [5]) turned out to be 45 nM. Moreover, the half-maximal inhibitory concentration (IC50) in assay [2] (setting [4]) was determined as 1 nM.
As to `CC(C)(O)[C@H](F)CNC(=O)c1cnc(-n2ccc3cc(C#N)cnc32)cc1NC1CCC(F)C1` (single isomer, unassigned) [Example 110], the EC50 in assay [1] (setting [3]) was determined as 47 nM. Besides, in assay [2] (setting [4]), the IC50 turned out to be 1.3 nM.
Regarding `CC(C)(O)[C@H](F)CNC(=O)c1cnc(-n2ccc3cc(C#N)cnc32)cc1NC1CCCC(F)(F)C1O` (single isomer, unassigned) [Example 112], the EC50 in assay [1] (setting [5]) amounted to 159 nM. The IC50 in assay [2] (IRAK4 IC50) worked out at 4.4 nM.
With `CC(C)Nc1cc(-n2ccc3cc(C#N)cnc32)ncc1C(=O)NC[C@@H](F)C(C)NC(C)C` (single isomer, unassigned) [Example 129], the EC50 in assay [1] (setting [3]) worked out at 451 nM. For the same compound, the half-maximal inhibitory concentration (IC50) in assay [2] (setting [4]) was determined as 4.1 nM.
With `CC(C)Nc1cc(-n2ccc3cc(C#N)cnc32)ncc1C(=O)NC[C@@H](F)C(C)NC(C)C` (single isomer, unassigned) [Example 130], the EC50 in assay [1] (setting [3]) was 99 nM. Moreover, in assay [2] (setting [4]), the IC50 was found to be 2.3 nM.
Consider `CC(C)(O)[C@H](F)CNC(=O)c1cnc(-n2ncc3cc(C#N)cnc32)cc1NC1CCCOC1` (single isomer, unassigned) [Example 142], for which the EC50 in assay [1] (setting [5]) was 354 nM. Moreover, the IC50 in assay [2] (setting [4]) worked out at 11.4 nM.
For the compound `CC(C)(O)[C@H](F)CNC(=O)c1cnc(-n2ncc3cc(C#N)cnc32)cc1NC1CCCOC1` (single isomer, unassigned) [Example 143], in assay [1] (setting [3]), the half-maximal effective concentration (EC50) is 185 nM. Besides, the IC50 in assay [2] (setting [4]) was found to be 6.5 nM.
In the case of `CC(F)[C@H](C)Nc1cc(-n2ncc3cc(C#N)cnc32)ncc1C(=O)NC[C@@H](F)C(C)(C)O` (single isomer, unassigned) [Example 202], the EC50 in assay [1] (setting [5]) stood at 131 nM. The IC50 in assay [2] (setting [4]) worked out at 10.6 nM.
`CC(F)[C@H](C)Nc1cc(-n2ncc3cc(C#N)cnc32)ncc1C(=O)NC[C@@H](F)C(C)(C)O` (single isomer, unassigned) [Example 203]: the EC50 in assay [1] (setting [3]) came to 124 nM. For the same compound, the IC50 in assay [2] (setting [4]) worked out at 3.9 nM.
On to `CC(C)Nc1cc(-n2ncc3cc(C#N)cnc32)ncc1C(=O)NC[C@@H](F)C(O)C(C)C` (single isomer, unassigned) [Example 232], for which, in assay [1] (setting [5]), the EC50 was 33 nM. The IC50 in assay [1] (setting [5]) amounted to 211 nM; in assay [2] (setting [4]), 2.3 nM.
Regarding `CC(C)Nc1cc(-n2ncc3cc(C#N)cnc32)ncc1C(=O)NC[C@@H](F)C(O)C(C)C` (single isomer, unassigned) [Example 233], in assay [1] (setting [3]), the EC50 is 38 nM and the IC50 was 176 nM. Moreover, the 50% inhibitory concentration (IC50) in assay [2] (setting [4]) was determined as 3.6 nM.
Regarding `CC(CCF)Nc1cc(-n2ccc3cc(C#N)cnc32)ncc1C(=O)NC[C@@H](F)C(C)(C)O` (single isomer, unassigned) [Example 426], the EC50 in assay [1] (setting [6]) stood at 51 nM. In addition, the IC50 in assay [2] (setting [7]) was 1.6 nM.
With `C[C@H](CF)Nc1cc(-n2ncc3cc(C#N)cnc32)ncc1C(=O)NC[C@@H](F)C(C)(C)O` [Example 114, 6-(5-Cyano-1H-pyrazolo[3,4-b]pyridin-1-yl)-N—((R)-2-fluoro-3-hydroxy-3-methylbutyl)-4-(((R)-1-fluoropropan-2-yl)amino)nicotinamide], the concentration for half-maximal inhibition (IC50) in assay [2] (setting [4]) came out at 4.6 nM.
For `[2H]C([2H])([2H])OC(C)(C)[C@H](F)CNC(=O)c1cnc(-n2ccc3cc(C#N)cnc32)cc1NC(C)C` [Example 442], the EC50 in assay [1] (setting [6]) came out at 42 nM.
On to `CC(C)Nc1cc(-n2ccc3cc(C#N)cnc32)ncc1C(=O)NC1CCC(C(C)(O)C2CC2)CC1` (stereo not shown) [Example 444], for which the EC50 in assay [1] (setting [8]) worked out at 186 nM.
The same measure, in the same setting: the value for `CC(C)Nc1cc(-n2ccc3cc(C#N)cnc32)ncc1C(=O)NC1CCC(C(C)(O)C2CC2)CC1` (stereo not shown) [Example 446] was 51 nM.
Turning to `CC(C)(O)[C@H](F)CNC(=O)c1cnc(-n2ccc3cc(C(N)=O)cnc32)cc1NCC1CNC1` [Example 475], in assay [1] (setting [6]), the 50% effective concentration (EC50) turned out to be 305 nM and the IC50 stood at 1180 nM.
As to `CC(C)Nc1cc(-n2ccc3cc(CNC(=O)CC(C)(C)O)cnc32)ncc1C(=O)NC[C@@H](F)C(C)(C)O` [Example 499], the IC50 in assay [1] (setting [6]) amounted to 213 nM.
Take `CC(C)(O)[C@H](F)CNC(=O)c1cnc(-n2ncc3cc(C#N)cnc32)cc1Nc1ccc(C#N)cc1` [Example 523]: the EC50 in assay [1] (setting [6]) was found to be 24 nM.
For `CC(C)(O)[C@H](F)CNC(=O)c1cnc(-n2ncc3cc(C#N)cnc32)cc1N[C@@H]1CCN(c2ncc(F)cn2)C1` [Example 534], in assay [1] (setting [6]), the IC50 is 824 nM. In addition, in assay [1] (setting [8]), the EC50 is 59 nM.
In the case of `CC(C)(O)[C@H](F)CNC(=O)c1cnc(-n2ncc3cc(C#N)cnc32)cc1N[C@@H]1CCOC1` [Example 544, 6-(5-Cyano-1H-pyrazolo[3,4-b]pyridin-1-yl)-N—((R)-2-fluoro-3-hydroxy-3-methylbutyl)-4-(((R)-tetrahydrofuran-3-yl)amino)nicotinamide, TFA salt], the EC50 in assay [1] (human PBMCs, lipoteichoic acid stimulated, TFA salt) is 239 nM.
Take `CC(C)(O)[C@H](F)CNC(=O)c1cnc(-n2ncc3cc(C#N)cnc32)cc1N[C@H]1CCOC1` [Example 545, 6-(5-Cyano-1H-pyrazolo[3,4-b]pyridin-1-yl)-N—((R)-2-fluoro-3-hydroxy-3-methylbutyl)-4-(((S)-tetrahydrofuran-3-yl)amino)nicotinamide, TFA salt]: in assay [1] (setting [6]), the EC50 came out at 476 nM.
As for `CC(C)(O)[C@H](F)CNC(=O)c1cnc(-n2ncc3cc(C#N)cnc32)cc1N[C@@H]1CCOC1` [Example 548], in assay [1] (setting [6]), the IC50 was found to be 763 nM. Moreover, the half-maximal effective concentration (EC50) in assay [1] (setting [8]) is 708 nM.
On to `CCCNc1cc(-n2ncc3cc(C#N)cnc32)ncc1C(=O)NC[C@@H](F)C(C)(C)O` [Example 592], for which the concentration for half-maximal inhibition (IC50) in assay [1] (setting [6]) was determined as 271 nM.
`CC(F)CCNc1cc(-n2ncc3cc(C#N)cnc32)ncc1C(=O)NC[C@@H](F)C(C)(C)O` (stereo partly shown) [Example 604]: the IC50 in assay [1] (setting [6]) turned out to be 104 nM.
Consider `CC(C)(O)[C@H](F)CNC(=O)c1cnc(-n2ncc3cc(C#N)cnc32)cc1NC1CCC(F)C1` (stereo partly shown) [Example 625], for which, in assay [1] (setting [8]), the IC50 came out at 210 nM.
`CC(C)(O)[C@H](F)CNC(=O)c1cnc(-n2ncc3cc(C#N)cnc32)cc1NC1CCC(F)C1` (stereo partly shown) [Example 626]: the IC50 in assay [1] (setting [8]) came to 76 nM.
For `CC(C)(O)[C@H](F)CNC(=O)c1cnc(-n2ncc3cc(C#N)cnc32)cc1NC1CCC(F)C1` (stereo partly shown) [Example 627], the IC50 in assay [1] (setting [8]) amounted to 7 nM.

Values taken from US9169252B2 (BRISTOL-MYERS SQUIBB COMPANY, priority 2014, dated 2015).
